# Laboratory results taken from patent US20250002455A1, “NEW N-PHENYLPYRROLAMIDE INHIBITORS OF DNA GYRASE AND TOPOISOMERASE IV WITH ANTIBACTERIAL ACTIVITY” (priority 2020, published 2025).
# Where two headings read alike, the source gives them in different places.
# Legend:
# E. coli DNA gyrase = target: T1, E. coli DNA gyrase (Escherichia coli, UniProt P0AES6); test: biochemical
# T1 construct: purchased Inspiralis
# Procedure: (§1) Inhibitory activities for compounds of the present invention were determined on E. coli and S. aureus DNA gyrase and topoisomerase IV in an assay from Inspiralis on streptavidin-coated 96-well microtiter plates from Thermo scientific Pierce. […] After washing off the unbound oligonucleotide, the enzyme test was performed. […] Reaction solutions were incubated at 37° C. for 30 min. After that, the TF buffer (50 mM NaOAc with pH 5.0, 50 mM NaCl and 50 mM MgCl2) was added to terminate the enzymatic reaction. After additional incubation for 30 min at rt, during which biotin-oligonucleotide-plasmid triplex was formed, the unbound plasmid was washed off using TF buffer and SybrGOLD in T10 buffer (10 mM Tris HCl with pH 8.0 and 1 mM EDTA) was added. […] GraphPad Prism 6.0 software was used to calculate the IC50 values. The result is given as the average value of three independent measurements. […] Chemoth.
# S. aureus DNA gyrase = target: T2, S. aureus DNA gyrase (Staphylococcus aureus, UniProt P0A0K8); test: biochemical
# T2 construct: purchased Inspiralis
# T2 sequence (P20831 whole entry): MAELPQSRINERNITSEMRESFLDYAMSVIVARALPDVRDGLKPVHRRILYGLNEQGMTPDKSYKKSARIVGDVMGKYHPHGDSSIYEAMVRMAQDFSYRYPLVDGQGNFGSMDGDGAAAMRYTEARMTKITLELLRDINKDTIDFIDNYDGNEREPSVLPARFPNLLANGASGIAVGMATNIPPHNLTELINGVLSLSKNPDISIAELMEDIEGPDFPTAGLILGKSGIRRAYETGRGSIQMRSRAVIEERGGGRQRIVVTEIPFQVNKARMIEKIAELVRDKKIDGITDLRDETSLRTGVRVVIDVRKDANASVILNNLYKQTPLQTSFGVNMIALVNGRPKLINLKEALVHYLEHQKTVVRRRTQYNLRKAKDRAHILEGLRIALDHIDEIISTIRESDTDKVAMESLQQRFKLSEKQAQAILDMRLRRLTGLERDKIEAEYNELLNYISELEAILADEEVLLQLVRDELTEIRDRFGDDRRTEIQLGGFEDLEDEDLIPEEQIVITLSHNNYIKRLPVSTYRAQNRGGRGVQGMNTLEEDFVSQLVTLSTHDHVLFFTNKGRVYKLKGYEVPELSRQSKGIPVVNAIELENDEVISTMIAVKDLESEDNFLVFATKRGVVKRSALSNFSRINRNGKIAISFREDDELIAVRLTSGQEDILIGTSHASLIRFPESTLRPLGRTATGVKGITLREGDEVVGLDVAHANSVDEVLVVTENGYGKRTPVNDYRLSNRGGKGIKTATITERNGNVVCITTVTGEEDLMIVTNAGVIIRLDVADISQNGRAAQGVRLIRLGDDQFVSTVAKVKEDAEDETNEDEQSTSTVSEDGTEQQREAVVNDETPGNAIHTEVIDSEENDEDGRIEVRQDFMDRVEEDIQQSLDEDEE
# T2 sequence (P0A0K8 whole entry): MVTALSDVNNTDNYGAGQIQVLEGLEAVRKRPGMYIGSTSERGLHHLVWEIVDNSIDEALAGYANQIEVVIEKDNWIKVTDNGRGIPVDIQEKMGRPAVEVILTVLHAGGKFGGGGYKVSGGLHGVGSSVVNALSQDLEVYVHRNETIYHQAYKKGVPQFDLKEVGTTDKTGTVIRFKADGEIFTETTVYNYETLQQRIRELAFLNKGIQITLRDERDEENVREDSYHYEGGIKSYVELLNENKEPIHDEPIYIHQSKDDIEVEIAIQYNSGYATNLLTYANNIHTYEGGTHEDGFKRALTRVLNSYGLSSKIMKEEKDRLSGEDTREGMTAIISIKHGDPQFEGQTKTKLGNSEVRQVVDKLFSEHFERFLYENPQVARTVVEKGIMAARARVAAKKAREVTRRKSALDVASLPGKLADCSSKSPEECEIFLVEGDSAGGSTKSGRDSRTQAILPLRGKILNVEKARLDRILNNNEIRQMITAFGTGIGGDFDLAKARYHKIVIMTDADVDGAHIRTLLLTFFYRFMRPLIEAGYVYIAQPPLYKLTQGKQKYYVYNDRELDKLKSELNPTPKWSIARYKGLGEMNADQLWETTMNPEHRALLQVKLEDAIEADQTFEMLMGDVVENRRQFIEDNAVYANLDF
# Procedure: as §1
# [1] = test system: S. aureus ATCC 700699 (VISA); test: Microbroth dilution MIC (CLSI); format: cell-based; conditions: Staphylococcus aureus
# Procedure: (§2) The chemical entities described in the present invention were assessed for their antimicrobial activity using a microbroth dilution assay as recommended by the CLSI (Methods for Dilution Antimicrobial Susceptibility Tests for Bacteria That Grow Aerobically, and Methods for Antimicrobial Susceptibility Testing of Anaerobic Bacteria, Clinical and Laboratory Standards Institute, Document M07-A8, and M11-A8, Wayne, PA 19087, USA, 2012.). Compounds were dissolved by using 100% DMSO. Serial two-fold dilutions of each compound were made by using 100% DMSO as the diluent.
# (§3) A library of Gram-negative and Gram-positive microbes and their drug- and multidrug-resistant variants were employed as test organisms. The MIC (minimum inhibitory concentration) was determined as the lowest concentration of an individual drug that lead to no visible growth.
# K. pneumoniae ATCC 10031 = test: Microbroth dilution MIC (CLSI); format: cell-based; conditions: Klebsiella pneumoniae, ATCC10031
# Procedure: as §2, §3
# E. faecalis ATCC 29212 = test: Microbroth dilution MIC (CLSI); format: cell-based; conditions: Enterococcus faecalis, ATCC29212
# Procedure: as §2, §3
# S. aureus ATCC 29213 = test: Microbroth dilution MIC (CLSI); format: cell-based; conditions: Staphylococcus aureus, ATCC29213
# Procedure: as §2, §3
# A. baumannii ATCC 17978 = test: Microbroth dilution MIC (CLSI); format: cell-based; conditions: Acinetobacter baumannii, ATCC17978
# Procedure: as §2, §3
# [2] = test system: S. aureus ATCC 43300 (MRSA); test: Microbroth dilution MIC (CLSI); format: cell-based; conditions: Staphylococcus aureus
# Procedure: as §2, §3
# P. aeruginosa ATCC 27853 = test: Microbroth dilution MIC (CLSI); format: cell-based; conditions: Pseudomonas aeruginosa, ATCC27853
# Procedure: as §2, §3
# E. coli ATCC 25922 = test: Microbroth dilution MIC (CLSI); format: cell-based; conditions: Escherichia coli, ATCC25922
# Procedure: as §2, §3
# E. faecium ATCC 700221 = test: Microbroth dilution MIC (CLSI); format: cell-based; conditions: Enterococcus faecium, ATCC700221
# Procedure: as §2, §3
# [3] = test system: E. spp. cloacae ATCC 13047; test: Microbroth dilution MIC (CLSI); format: cell-based; conditions: Enterobacter cloacae, ATCC13047
# Procedure: as §2, §3
# E. coli topoisomerase IV = target: T3, E. coli topoisomerase IV (Escherichia coli, UniProt P20083); test: biochemical; conditions: for remaining activity at 1 µM: 1 μM compound; for remaining activity at 10 µM: 10 μM compound
# T3 construct: purchased Inspiralis
# T3 sequence (P0AFI2 whole entry): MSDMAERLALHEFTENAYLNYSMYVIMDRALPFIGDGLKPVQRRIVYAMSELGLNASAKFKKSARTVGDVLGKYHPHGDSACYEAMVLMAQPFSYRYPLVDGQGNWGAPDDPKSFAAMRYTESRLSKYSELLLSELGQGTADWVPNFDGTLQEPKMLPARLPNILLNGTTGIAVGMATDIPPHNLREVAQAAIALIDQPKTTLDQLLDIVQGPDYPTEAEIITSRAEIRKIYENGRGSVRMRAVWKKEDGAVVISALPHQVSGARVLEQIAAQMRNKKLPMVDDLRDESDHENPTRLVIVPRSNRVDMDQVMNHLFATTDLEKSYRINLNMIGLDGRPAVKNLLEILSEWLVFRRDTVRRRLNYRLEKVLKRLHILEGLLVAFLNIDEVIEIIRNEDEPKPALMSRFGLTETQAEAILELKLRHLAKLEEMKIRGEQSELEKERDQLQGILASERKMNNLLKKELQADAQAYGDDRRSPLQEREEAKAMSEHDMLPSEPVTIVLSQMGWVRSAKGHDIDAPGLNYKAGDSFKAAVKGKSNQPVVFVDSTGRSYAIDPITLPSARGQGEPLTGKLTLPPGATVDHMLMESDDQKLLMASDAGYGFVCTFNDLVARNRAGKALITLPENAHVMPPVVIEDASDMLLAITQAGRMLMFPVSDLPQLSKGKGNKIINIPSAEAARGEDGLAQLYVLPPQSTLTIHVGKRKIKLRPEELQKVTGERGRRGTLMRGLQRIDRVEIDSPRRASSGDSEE
# T3 sequence (P20083 whole entry): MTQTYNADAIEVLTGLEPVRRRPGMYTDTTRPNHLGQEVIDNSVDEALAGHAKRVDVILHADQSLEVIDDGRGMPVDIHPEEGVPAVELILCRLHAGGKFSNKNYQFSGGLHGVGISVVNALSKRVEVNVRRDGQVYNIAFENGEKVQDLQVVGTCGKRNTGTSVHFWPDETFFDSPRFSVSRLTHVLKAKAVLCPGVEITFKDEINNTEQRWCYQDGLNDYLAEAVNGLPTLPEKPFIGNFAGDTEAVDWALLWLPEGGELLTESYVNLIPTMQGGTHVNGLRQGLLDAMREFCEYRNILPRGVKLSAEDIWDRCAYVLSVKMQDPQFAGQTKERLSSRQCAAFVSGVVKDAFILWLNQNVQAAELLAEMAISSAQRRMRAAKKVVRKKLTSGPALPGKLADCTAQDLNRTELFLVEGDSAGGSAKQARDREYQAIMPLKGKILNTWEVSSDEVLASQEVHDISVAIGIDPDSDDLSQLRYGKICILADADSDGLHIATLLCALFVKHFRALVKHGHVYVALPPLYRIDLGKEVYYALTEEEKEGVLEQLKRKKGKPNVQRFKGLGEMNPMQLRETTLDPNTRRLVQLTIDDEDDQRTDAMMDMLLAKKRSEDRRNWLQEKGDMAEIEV
# Procedure: (§4) Inhibitory activities for compounds of the present invention were determined on E. coli and S. aureus DNA gyrase and topoisomerase IV in an assay from Inspiralis on streptavidin-coated 96-well microtiter plates from Thermo scientific Pierce. […] After washing off the unbound oligonucleotide, the enzyme test was performed. […] Reaction solutions were incubated at 37° C. for 30 min. After that, the TF buffer (50 mM NaOAc with pH 5.0, 50 mM NaCl and 50 mM MgCl2) was added to terminate the enzymatic reaction. After additional incubation for 30 min at rt, during which biotin-oligonucleotide-plasmid triplex was formed, the unbound plasmid was washed off using TF buffer and SybrGOLD in T10 buffer (10 mM Tris HCl with pH 8.0 and 1 mM EDTA) was added. […] Initial screening was done at 100 or 10 nM concentration of inhibitors against E. coli DNA gyrase or 1 μM or 100 nM concentration against S. aureus DNA gyrase and E. coli and S. aureus topo IV. […] GraphPad Prism 6.0 software was used to calculate the IC50 values. The result is given as the average value of three independent measurements. […] Chemoth.
# [4] = target: T4, S. aureus topoisomerase IV (Staphylococcus aureus, UniProt P0C1S7); test: Topoisomerase IV inhibition assay (Inspiralis, streptavidin-coated plates); format: biochemical; conditions: S. aureus topo IV, read-out: RA (residual activity of the enzyme); for remaining activity at 0.1 µM: 0.1 μM compound
# T4 construct: purchased Inspiralis
# T4 sequence (P0C1U9 whole entry): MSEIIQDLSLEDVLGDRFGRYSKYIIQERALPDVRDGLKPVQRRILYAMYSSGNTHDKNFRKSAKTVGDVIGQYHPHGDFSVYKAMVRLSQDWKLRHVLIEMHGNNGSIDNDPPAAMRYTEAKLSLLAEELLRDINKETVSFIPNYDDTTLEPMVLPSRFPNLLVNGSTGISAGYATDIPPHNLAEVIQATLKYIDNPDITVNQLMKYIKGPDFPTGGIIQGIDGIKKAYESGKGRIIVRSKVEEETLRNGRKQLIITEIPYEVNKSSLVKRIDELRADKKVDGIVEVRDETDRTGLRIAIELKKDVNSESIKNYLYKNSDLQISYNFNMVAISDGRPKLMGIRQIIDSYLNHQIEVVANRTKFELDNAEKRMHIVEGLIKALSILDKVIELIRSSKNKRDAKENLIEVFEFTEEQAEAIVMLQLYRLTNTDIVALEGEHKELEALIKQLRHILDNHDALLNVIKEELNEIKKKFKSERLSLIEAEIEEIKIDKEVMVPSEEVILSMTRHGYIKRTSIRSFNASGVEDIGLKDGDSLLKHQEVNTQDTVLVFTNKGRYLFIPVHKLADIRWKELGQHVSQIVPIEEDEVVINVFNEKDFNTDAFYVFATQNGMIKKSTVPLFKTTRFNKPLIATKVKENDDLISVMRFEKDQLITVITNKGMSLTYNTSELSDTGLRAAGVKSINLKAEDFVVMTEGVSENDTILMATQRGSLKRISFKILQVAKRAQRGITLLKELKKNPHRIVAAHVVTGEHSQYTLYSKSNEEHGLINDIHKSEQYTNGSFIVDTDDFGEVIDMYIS
# T4 sequence (P0C1S7 whole entry): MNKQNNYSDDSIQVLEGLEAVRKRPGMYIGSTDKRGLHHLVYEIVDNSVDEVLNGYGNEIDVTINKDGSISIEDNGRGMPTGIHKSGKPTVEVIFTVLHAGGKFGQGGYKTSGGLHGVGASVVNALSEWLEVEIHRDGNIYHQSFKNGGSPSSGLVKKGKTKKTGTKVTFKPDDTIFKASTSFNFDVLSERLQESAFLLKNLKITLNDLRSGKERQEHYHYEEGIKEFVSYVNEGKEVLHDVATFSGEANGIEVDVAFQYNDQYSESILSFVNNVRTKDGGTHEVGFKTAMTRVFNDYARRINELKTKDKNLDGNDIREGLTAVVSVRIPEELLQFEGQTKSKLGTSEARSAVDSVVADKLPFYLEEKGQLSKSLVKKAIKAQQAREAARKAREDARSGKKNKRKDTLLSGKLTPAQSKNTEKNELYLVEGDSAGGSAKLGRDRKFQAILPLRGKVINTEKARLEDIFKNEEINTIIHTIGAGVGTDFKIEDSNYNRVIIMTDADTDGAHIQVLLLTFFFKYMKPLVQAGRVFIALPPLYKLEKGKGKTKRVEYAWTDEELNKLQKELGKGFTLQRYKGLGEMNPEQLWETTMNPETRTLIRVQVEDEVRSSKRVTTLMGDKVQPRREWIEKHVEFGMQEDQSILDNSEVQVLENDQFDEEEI
# Procedure: as §4
# [5] = E. coli DNA gyrase, read-out: IC50
# [6] = S. aureus DNA gyrase, read-out: IC50
# [7] = S. aureus ATCC 700699 (VISA), read-out: MIC
# [8] = K. pneumoniae ATCC 10031, read-out: MIC
# [9] = E. faecalis ATCC 29212, read-out: MIC
# [10] = S. aureus ATCC 29213, read-out: MIC
# [11] = A. baumannii ATCC 17978, read-out: MIC
# [12] = S. aureus ATCC 43300 (MRSA), read-out: MIC
# [13] = P. aeruginosa ATCC 27853, read-out: MIC
# [14] = E. coli ATCC 25922, read-out: MIC
# [15] = E. faecium ATCC 700221, read-out: MIC
# [16] = E. spp. cloacae ATCC 13047, read-out: MIC
# [17] = E. coli topo IV, read-out: RA (residual activity of the enzyme)
# [18] = E. coli topo IV, read-out: IC50
SMILES,IC50 (E. coli DNA gyrase; [5]) [nM],IC50 (S. aureus DNA gyrase; [6]) [nM],"MIC [1, 7] [µg/mL]",MIC (K. pneumoniae ATCC 10031; [8]) [µg/mL],MIC (E. faecalis ATCC 29212; [9]) [µg/mL],MIC (S. aureus ATCC 29213; [10]) [µg/mL],MIC (A. baumannii ATCC 17978; [11]) [µg/mL],"MIC [2, 12] [µg/mL]",MIC (P. aeruginosa ATCC 27853; [13]) [µg/mL],MIC (E. coli ATCC 25922; [14]) [µg/mL],MIC (E. faecium ATCC 700221; [15]) [µg/mL],"MIC [3, 16] [µg/mL]",remaining activity at 1 µM (E. coli topoisomerase IV; [17]) [%],IC50 (E. coli topoisomerase IV; [18]) [nM],other results
"Cc1[nH]c(C(=O)Nc2ccc(-n3nn[nH]c3=O)cc2N2CC[C@H](N)C2)c(Cl)c1Cl.Cl [Example 22, (S)-1-(2-(3,4-Dichloro-5-methyl-1H-pyrrole-2-carboxamido)-5-(5-oxo-4,5-dihydro-1H-tetrazol-1-yl)phenyl)pyrrolidin-3-aminium chloride]",4.9,121,> 64,≥ 32,> 64,≥ 32,≥ 32,≥ 32,≥ 32,≥ 32,≥ 32,≥ 32,97,,remaining activity at 10 µM (E. coli topoisomerase IV; [17]): 26%
"Cc1[nH]c(C(=O)Nc2ccc(-c3noc(=O)[nH]3)cc2N2CCCC(N)C2)c(Cl)c1Cl.Cl (centres unmarked) [Example 2, 1-(2-(3,4-Dichloro-5-methyl-1H-pyrrole-2-carboxamido)-5-(5-oxo-4,5-dihydro-1,2,4-oxadiazol-3-yl)phenyl)piperidin-3-aminium chloride]",2.49,55.8,> 64,16,8,> 64,> 64,> 64,> 64,> 64,8,> 64,,145,
"Cc1[nH]c(C(=O)Nc2ccc(-c3noc(=O)[nH]3)cc2NC2CCNCC2)c(Cl)c1Cl.Cl [Example 4, 4-((2-(3,4-Dichloro-5-methyl-1H-pyrrole-2-carboxamido)-5-(5-oxo-4,5-dihydro-1,2,4-oxadiazol-3-yl)phenyl)amino)piperidin-1-ium chloride]",,,,,,,,,,,,,,,IC50 (E. coli DNA gyrase): 9.66 nM; IC50 (S. aureus DNA gyrase): 249 nM; MIC [1]: > 64 µg/mL; MIC (K. pneumoniae ATCC 10031): > 64 µg/mL; MIC (E. faecalis ATCC 29212): > 64 µg/mL; MIC (S. aureus ATCC 29213): > 64 µg/mL; MIC (A. baumannii ATCC 17978): > 64 µg/mL; MIC [2]: > 64 µg/mL; MIC (P. aeruginosa ATCC 27853): > 64 µg/mL; MIC (E. coli ATCC 25922): > 64 µg/mL; MIC (E. faecium ATCC 700221): > 64 µg/mL; MIC [3]: > 64 µg/mL; IC50 (E. coli topoisomerase IV): 1180 nM
"Cc1[nH]c(C(=O)Nc2ccc(-c3nn[nH]n3)cc2N2CCCC(CN)C2)c(Cl)c1Cl.Cl (centres unmarked) [Example 9, (1-(2-(3,4-Dichloro-5-methyl-1H-pyrrole-2-carboxamido)-5-(2H-tetrazol-5-yl)phenyl)piperidin-3-yl)methanaminium chloride]",2.16,35,> 64,64,8,16,> 64,> 64,> 64,> 64,16,> 64,,60.3,
"Cc1[nH]c(C(=O)Nc2ccc(-c3noc(=O)[nH]3)cc2N2CCCC(CN)C2)c(Cl)c1Cl.Cl (centres unmarked) [Example 3, (1-(2-(3,4-Dichloro-5-methyl-1H-pyrrole-2-carboxamido)-5-(5-oxo-4,5-dihydro-1,2,4-oxadiazol-3-yl)phenyl)piperidin-3-yl)methanaminium chloride]",3.19,24.1,2,2,0.25,4,> 64,4,> 64,> 64,2,> 64,,41.8,
"Cc1[nH]c(C(=O)Nc2ccc(-c3n[nH]c(=O)o3)cc2OCCC2CCNCC2)c(Cl)c1Cl.Cl [Example 29, 4-(2-(2-(3,4-Dichloro-5-methyl-1H-pyrrole-2-carboxamido)-5-(5-oxo-4,5-dihydro-1,3,4-oxadiazol-2-yl)phenoxy)ethyl)piperidin-1-ium chloride]",,,≥ 32,≥ 32,≥ 32,≥ 32,≥ 32,≥ 32,≥ 32,≥ 32,≥ 32,≥ 32,,,"remaining activity at 0.01 µM (E. coli DNA gyrase; E. coli DNA gyrase, 10 nM compound, read-out: RA (residual activity of the enzyme)): 1%; remaining activity at 10 µM (E. coli topoisomerase IV; [17]): 103%"
"Cc1[nH]c(C(=O)Nc2ccc(-c3n[nH]c(=O)o3)cc2N2CC[C@H](N)C2)c(Cl)c1Cl.Cl [Example 20, (S)-1-(2-(3,4-Dichloro-5-methyl-1H-pyrrole-2-carboxamido)-5-(5-oxo-4,5-dihydro-1,3,4-oxadiazol-2-yl)phenyl)pyrrolidin-3-aminium chloride]",2.8,,,0.064,1,2,8,2,32,8,,32,105,,"remaining activity at 0.01 µM (S. aureus DNA gyrase; S. aureus DNA gyrase, 0.01 μM compound, read-out: RA (residual activity of the enzyme)): 90%; remaining activity at 0.1 µM (S. aureus DNA gyrase; S. aureus DNA gyrase, 0.1 μM compound, read-out: RA (residual activity of the enzyme)): 39%; remaining activity at 0.1 µM [4]: 99%"
"Cc1[nH]c(C(=O)Nc2ccc(-c3noc(=O)[nH]3)cc2N2CCOCC2)c(Cl)c1Cl [Example 8, 3,4-Dichloro-5-methyl-N-(2-morpholino-4-(5-oxo-4,5-dihydro-1,2,4-oxadiazol-3-yl)phenyl)-1H-pyrrole-2-carboxamide]",13,,,,,,,,,,,,,,remaining activity at 0.1 µM [4]: 51%; remaining activity at 1 µM ([4]; 1 μM compound): 10%
"Cc1[nH]c(C(=O)Nc2ccc(-c3noc(=O)[nH]3)cc2N2CCC(N)CC2)c(Cl)c1Cl.Cl [Example 1, 1-(2-(3,4-Dichloro-5-methyl-1H-pyrrole-2-carboxamido)-5-(5-oxo-4,5-dihydro-1,2,4-oxadiazol-3-yl)phenyl)piperidin-4-aminium chloride]",0.253,,16,64,32,64,≥ 64,32,≥ 64,≥ 64,32,≥ 64,33,,"remaining activity at 0.1 µM (E. coli topoisomerase IV; E. coli topo IV, 0.1 μM compound, read-out: RA (residual activity of the enzyme)): 105%"
